Experimental data published in a compilation of properties of binary mixtures (doi:10.1021/je050444g).

Test: excess molar enthalpy (molar enthalpy of mixing); xn = mol fraction of the nth substance listed
Details: 308.15 K, 100 kPa

CS(C)=O + COC(=O)OC
Details	excess molar enthalpy [kcal/mol]
x1 = 0.0473	0.0447
x1 = 0.0904	0.0755
x1 = 0.1297	0.0989
x1 = 0.1657	0.111
x1 = 0.2296	0.129
x1 = 0.3735	0.147
x1 = 0.5438	0.145
x1 = 0.6414	0.138
x1 = 0.7045	0.127
x1 = 0.7815	0.112
x1 = 0.8267	0.097
x1 = 0.8774	0.077
x1 = 0.9051	0.0631
x1 = 0.9662	0.0246

CC1COC(=O)O1 (stereo unspecified) + CS(C)=O
Details	excess molar enthalpy [kcal/mol]
x2 = 0.0571	0.0186
x2 = 0.108	0.0332
x2 = 0.1538	0.0457
x2 = 0.195	0.0545
x2 = 0.2666	0.0703
x2 = 0.3264	0.0803
x2 = 0.4209	0.0915
x2 = 0.492	0.0989
x2 = 0.6857	0.0949
x2 = 0.7441	0.0856
x2 = 0.8135	0.0712
x2 = 0.9458	0.0263
x2 = 0.9721	0.0139

CCOC(=O)OCC + CS(C)=O
Details	excess molar enthalpy [kcal/mol]
x2 = 0.0666	0.0901
x2 = 0.1249	0.146
x2 = 0.1764	0.183
x2 = 0.2221	0.208
x2 = 0.3635	0.247
x2 = 0.4614	0.252
x2 = 0.6315	0.232
x2 = 0.7199	0.206
x2 = 0.7741	0.179
x2 = 0.8371	0.149
x2 = 0.8727	0.125
x2 = 0.9115	0.0939
x2 = 0.932	0.0755
x2 = 0.9536	0.0547
